No end group written: not given here.
Experiments:
Test in all cases: biochemical
Type in all cases: binding
[1] = molecular target: HLA-A11 (A*1101) (Homo sapiens, UniProt P04439, A114D/D185E/E176A/F33Y/L180Q/S129P/T187R); parameters: A11: unit not given here
[2] = molecular target: A*3301 (Homo sapiens, UniProt P04439, A270S/D185E/E176V/E277Q/E87N/F33T/G231S/H175R/I121M/I218V/I322F/K168Q/K210R/L300P/L318F/M331R/P217A/Q86R/Q94H/R138Q/T323A/T345S/T97I/V358M/Y195H)
[3] = molecular target: A31 (A*3101) (Homo sapiens, UniProt P04439, A270S/D185E/E176V/E277Q/F33T/G231S/G80R/H175R/I121M/I218V/I322F/K168Q/L300P/L318F/M331R/P217A/Q94H/R138Q/T323A/T345S/T97I/V358M)
[4] = molecular target: HLA-A3.2 (A*0301) (Homo sapiens, UniProt P04439)
[5] = molecular target: A*6801 (Homo sapiens, UniProt P04439, A269V/D185E/E176V/E277Q/E87N/F33Y/G231S/I121M/I166T/I218V/L180W/L300P/L318F/N151K/P208A/P217A/Q86R/R169H/T345S)
[6] = molecular target: HLA-A*0201 (HLA-A2.1) (Homo sapiens, UniProt P04439, D140Y/D185E/D98H/E176V/E277Q/G131W/G231S/I119V/I121R/I166T/I218V/L300P/L318F/N151K/N90K/P208A/P217A/Q86G/Q94H/R138H/R169H/T345S)

| Sequence | IC50 [1] | IC50 [2] | IC50 [3] | IC50 [4] | IC50 [5] | A11 [1] | A2.1 [6] | A3.2 ([4]; Table 164, MAGE peptides, binding value to HLA-A3.2, no unit given) |
| --- | --- | --- | --- | --- | --- | --- | --- | --- |
| QTRSLTEILK [Peptide 9012.0217] | 96 nM | 19800 nM | 3170 nM | 250 nM | – | – | – | – |
| RFHNIAGHYR [Peptide 78.0097] | – | 99 nM | 11 nM | 2460 nM | 151 nM | – | – | – |
| RFLSKISEYR [Peptide 1571.13] | – | 20 nM | 14 nM | 1800 nM | 17 nM | – | – | – |
| RIGILRQRR [Peptide 9017.0113] | 1140 nM | – | 7.6 nM | 277 nM | – | – | – | – |
| RILSTCLGR [Peptide 9017.0073] | – | 1450 nM | 8.5 nM | 58 nM | 1450 nM | – | – | – |
| RLCDHIDYWK [Peptide 1589.11] | – | > 20000 nM | 1630 nM | 457 nM | 17100 nM | – | – | – |
| RLIDRIRER [Peptide 9017.0123] | 137 nM | 937 nM | 4.6 nM | 36 nM | – | – | – | – |
| SFTDLVRNFK [Peptide 88.0143] | – | 56 nM | 47 nM | 1590 nM | 22 nM | – | – | – |
| SLARRHIAR [Peptide 9017.0067] | 1100 nM | 30 nM | 1.5 nM | 66 nM | – | – | – | – |
| SLKCLRYRLK [Peptide 88.0217] | – | 18800 nM | 2690 nM | 74 nM | 12600 nM | – | – | – |
| SQRLNACQNK [Peptide 1589.34] | – | > 20000 nM | 5960 nM | 2700 nM | > 20000 nM | – | – | – |
| SQRLNVCQDK [Peptide 88.0205] | – | > 20000 nM | 13400 nM | 1870 nM | > 20000 nM | – | – | – |
| SQTCALYWFR [Peptide 88.0165] | 1830 nM | 260 nM | – | 4850 nM | – | – | – | – |
| SQWIKYRCSK [Peptide 88.0174] | – | 3400 nM | 323 nM | 944 nM | > 20000 nM | – | – | – |
| STWHWTSDDK [Peptide 1589.43] | 47 nM | > 20000 nM | 5300 nM | 342 nM | – | – | – | – |
| SVRKLVEDR [Peptide 9017.0105] | 1140 nM | 187 nM | 15 nM | 5100 nM | – | – | – | – |

| Sequence | IC50 [1] | IC50 [2] | IC50 [3] | IC50 [4] | IC50 [5] | A11 [1] | A2.1 [6] | A3.2 ([4]; Table 164, MAGE peptides, binding value to HLA-A3.2, no unit given) |
| --- | --- | --- | --- | --- | --- | --- | --- | --- |
| TTITVYAEPPR [Peptide 1556.07] | – | 2550 nM | 577 nM | > 20000 nM | 20 nM | – | – | – |
| TVDVYMIMVK [Peptide 9012.0257] | 95 nM | > 20000 nM | > 20000 nM | 11100 nM | – | – | – | – |
| TVRHKKLMFK [Peptide 1556.79] | 188 nM | 11800 nM | 5100 nM | 440 nM | – | – | – | – |
| TVSATQIVR [Peptide 1589.26] | – | 645 nM | 213 nM | 2540 nM | 14 nM | – | – | – |
| TVWNPPTTAK [Peptide 1556.03] | 26 nM | 1580 nM | 9190 nM | 25 nM | – | – | – | – |
| VFGIDVKEA | – | – | – | – | – | 0 | <0.0002 | <0.0002 |
| VLCGPPNTGK [Peptide 88.0189] | 220 nM | > 20000 nM | 370 nM | 141 nM | – | – | – | – |
| VLILALLRYK [Peptide 88.0144] | 266 nM | – | – | 52 nM | – | – | – | – |
| VLYGPANTGK [Peptide 88.0180] | 25 nM | – | 1930 nM | 9.8 nM | – | – | – | – |
| VSIEWRKRR [Peptide 9017.0090] | 77 nM | 58 nM | 9.2 nM | 2650 nM | – | – | – | – |
| VTIKIGGQIK [Peptide 1516.02] | 184 nM | > 20000 nM | 19300 nM | 1110 nM | – | – | – | – |
| VVCTYSPALNK [Peptide 1556.35] | 104 nM | > 20000 nM | 5190 nM | 370 nM | – | – | – | – |
| VVFGILIKRK [Peptide 9012.0246] | 13 nM | 10100 nM | 2600 nM | 54 nM | – | – | – | – |
| VVPALSVSK [Peptide 1589.14] | 33 nM | > 20000 nM | > 20000 nM | 515 nM | – | – | – | – |
| VVYRLVWDK [Peptide 1589.38] | 13 nM | 3780 nM | 989 nM | 63 nM | – | – | – | – |
| YLALTALIK [Peptide 9017.0097] | – | > 20000 nM | > 20000 nM | 235 nM | 5900 nM | – | – | – |

From patent publication US9340577B2, “HLA binding motifs and peptides and their uses” (priority 1992, dated 2016)
